Measurements published in PubChem BioAssay (NCI).
“And” between values parts separate entries of the source, which are not always exact repeats. Identical values can stand only once.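 The compound was tested at five concentrations on cells cultured in 96-well plates, with a 48-hour exposure period. At the GI50, growth is halved. TGI denotes the concentration required for complete inhibition of growth.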

What was measured:
Experiment in all cases: NCI tumour cell line growth inhibition, 48 h
RXF-631 renal = tested on: RXF-631 renal
XF 498 CNS = tested on: XF 498 CNS
KM20L2 colon = tested on: KM20L2 colon
SNB-78 CNS = tested on: SNB-78 CNS
M19-MEL melanoma = tested on: M19-MEL melanoma
P388 leukemia = tested on: P388 leukemia
P388/ADR leukemia = tested on: P388/ADR leukemia
SN12K1 renal = tested on: SN12K1 renal

| SMILES | TGI (RXF-631 renal) | TGI (XF 498 CNS) | TGI (KM20L2 colon) | TGI (SNB-78 CNS) | TGI (M19-MEL melanoma) | TGI (P388 leukemia) | TGI (P388/ADR leukemia) | TGI (SN12K1 renal) | GI50 (SNB-78 CNS) |
| --- | --- | --- | --- | --- | --- | --- | --- | --- | --- |
| CCCCCCCSCC1C(=O)C23C(O)C1CCC2C12COC3(O)C(O)C1C(C)(C)CCC2O (stereo unspecified) | 22 µM | 33.4 µM | 25 µM | 47.4 µM | 31.6 µM | – | – | – | – |
| CC[C@](C)(O)C(=O)O[C@H]1C(=O)O[C@@H]2C[C@H]3C(C)=C[C@H](O)[C@@H](O)[C@]3(C)[C@H]3[C@@]4(O)OC[C@]32[C@@H]1[C@@H](C)[C@H]4O | – | 66.5 µM | 189 µM | 138 µM | 45.5 µM | 128 µM | 325 µM | 32.1 µM | – |
| Nc1nc(Cl)cc(NCCCCCCCCCCCCNc2cc(Cl)nc(N)n2)n1 | – | 26.4 µM | > 100 µM | – | > 100 µM | – | – | – | – |
| CCN(CC)c1cccc2c1C1(O)CCC3(CC21)OCCCCO3 (stereo unspecified) | – | – | > 100 µM | > 100 µM | > 100 µM | – | – | – | – |
| COc1ccc(CCc2ccccc2CC(=O)O)cc1 | – | > 100 µM | > 100 µM | > 100 µM | > 100 µM | – | – | – | – |
| CC(=O)c1cccc(NC(=O)C(=O)C(C(=O)c2ccccc2F)C2OC(=O)c3ccccc32)c1 (stereo unspecified) | > 100 µM | > 100 µM | > 100 µM | > 100 µM | > 100 µM | – | – | – | – |
| FC(F)(F)C1(C(F)(F)F)O[SiH]2(OC(C(F)(F)F)(C(F)(F)F)c3ccccc32)c2ccccc21 | – | – | 18.4 µM | 52.8 µM | 39.4 µM | – | – | – | – |
| C/C(=N\NC(=S)NNC(=S)N(C)c1ccccc1)c1ccccn1 | – | > 100 µM | – | > 100 µM | 7.59 µM | – | – | – | – |
| CCOC(=O)/C=C/c1c[nH]c(C(=O)OCC)c1 | – | > 100 µM | > 100 µM | > 100 µM | > 100 µM | > 100 µM | > 100 µM | > 100 µM | – |
| COc1cc(C2c3cc4c(cc3[C@@H](NCCCN(C)C)[C@H]3COC(=O)C23)OCO4)cc(OC)c1O (stereo partly specified) | – | – | 2.44 µM and 4.44 µM | > 37.5 µM | 2.17 µM and 3.35 µM | – | – | – | 2.6 µM and 11.6 µM |
| ClCc1ccc2ccc3ccc(CCl)nc3c2n1 | – | 4.45 µM | 12 µM | 10.3 µM | 3.97 µM | 7.32 µM | 5.07 µM | 4.4 µM | – |
